Experiment [1] relates to Bacillus subtilis. The experiment in a line: Antimicrobial activity against Bacillus subtilis 327 after 18 hrs by microbroth dilution method. Format: functional. (Broth dilution looks for growth in wells or tubes with falling amounts of substance.)
The subject of experiment [2] is Staphylococcus aureus. The experiment in a line: Antimicrobial activity against methicillin-susceptible Staphylococcus aureus 375 after 18 hrs by microbroth dilution method. Format: functional.
Experiment [3] relates to Escherichia coli. Put plainly: Antimicrobial activity against Escherichia coli imp 389 after 18 hrs by microbroth dilution method. In kind it is functional.
Experiment [4] relates to Staphylococcus aureus. Put plainly: Antimicrobial activity against methicillin-resistant Staphylococcus aureus 310 after 18 hrs by microbroth dilution method. In kind it is functional.
In experiment [5] the test system is Staphylococcus aureus. The experiment in a line: Antimicrobial activity against Staphylococcus aureus infected in CD1 mouse administered subcutaneously after 30 mins infection measured after 7 days. In kind it is functional. Particulars: sc.
Experiment [6] is described as follows: Ratio of LD50 for CD1 mouse to ED50 for Staphylococcus aureus.

The source of these data is ChEMBL document CHEMBL1159340, “Antibacterial diterpenes from Calceolaria pinifolia” (J Nat Prod, 2003).

SMILES strings stand for the structures. Values after ≈ are worked out from the molar mass of the structure shown.

As to `CC1(C)CC[C@]2(C(=O)O)CC[C@]3(C)C(=CC[C@@H]4[C@@]5(C)CC[C@@H](O)C(C)(C)[C@@H]5CC[C@]43C)[C@@H]2C1`, the MIC in experiment [1] was 64 µg/mL (≈ 140 µM); in experiment [2], over 128 µg/mL; in experiment [3] it was over 128 µg/mL.

On to `C=C[C@]1(C)CCC2=C(CC[C@@H]3[C@](C)(CO)CCC[C@@]23C)C1`, for which the MIC is 32 µg/mL (≈ 111 µM) in experiment [1], 32 µg/mL (≈ 111 µM) in experiment [2], 64 µg/mL (≈ 222 µM) in experiment [4] and over 128 µg/mL in experiment [3].

As for `C=C[C@]1(C)CC=C2C(CC[C@@H]3[C@](C)(C(=O)O)CCC[C@@]23C)C1` (stereo not given in full), the MIC in experiment [1] was 32 µg/mL (≈ 106 µM); in experiment [2] it was 16 µg/mL (≈ 52.9 µM); in experiment [4] it was 32 µg/mL (≈ 106 µM); in experiment [3], over 128 µg/mL.

In experiment [5], `CN[C@H](CC(C)C)C(=O)N[C@H]1C(=O)N[C@@H](CC(N)=O)C(=O)N[C@H]2C(=O)N[C@H]3C(=O)N[C@H](C(=O)N[C@H](C(=O)O)c4cc(O)cc(O)c4-c4cc3ccc4O)[C@H](O)c3ccc(c(Cl)c3)Oc3cc2cc(c3O[C@@H]2O[C@H](CO)[C@@H](O)[C@H](O)[C@H]2O[C@H]2C[C@](C)(N)[C@H](O)[C@H](C)O2)Oc2ccc(cc2Cl)[C@H]1O` [VANCOMYCIN] registered an ED50 of 1 mg/kg. The Ratio LD50/ED50 in experiment [6] is over 1024.

Regarding `C[C@H]1[C@H](C)CC[C@]2(C(=O)O)CC[C@]3(C)C(=CC[C@@H]4[C@@]5(C)CC[C@@H](O)C(C)(C)[C@@H]5CC[C@]43C)[C@H]12`, the MIC in experiment [1] is 64 µg/mL (≈ 140 µM); in experiment [2] it was over 128 µg/mL; in experiment [3], over 128 µg/mL.

Regarding `CC(C)c1ccc2c(c1)CC[C@H]1[C@](C)(C(=O)O)CCC[C@]21C` [DEHYDROABIETIC ACID], the MIC worked out at 32 µg/mL (≈ 107 µM) in experiment [1], 16 µg/mL (≈ 53.3 µM) in experiment [2], 32 µg/mL (≈ 107 µM) in experiment [4] and 128 µg/mL (≈ 426 µM) in experiment [3].

A word on the MIC: it is the lowest concentration found to suppress growth. High values mean a need for much substance, low ones inhibition by little substance. A word on the ED50: it is the dose that gives a 50% effect, or the effect in half of the subjects.
